Test results reported in patent US20110118220A1, “Composition of bifonazole and its use” (priority 2009, published 2011).

Tests used:
[1] = Allergy study (repeated skin contact); type: in vivo
Source text: Observe the immune system response on skin after repeating skin contact animal skin with testing object.

[2] = tested on: filamentous fungi represented by Trichophyton rubrum; assay: In vitro antifungal activity (MIC), filamentous fungi; type: cell-based
Source text: (§1) To understand the in vivo and in vitro antibacterial effects, and to determine the in vivo and in vitro antibacterial activity through measuring the compound Bifonazole cream (Bifonazole/Triamcinolone acetonide acetate) on common pathogenic fungi of the minimum inhibitory concentration (MIC).

543 common fungi = assay: In vitro pharmacodynamics of nine antifungal agents against 543 common fungi; type: cell-based
Source text: as §1

[3] = Long-term toxicity study by skin exposure; type: in vivo, rats; conditions: rat
Source text: Observe the abnormal reaction and degree of reversibility of the reaction caused by skin penetration through long-term exposure the animal's skin to subject drug.

[4] = tested on: candida such as candida Albicans; assay: In vitro antifungal activity (MIC), candida; type: cell-based
Source text: as §1

Row | Structure (SMILES) | average response ([1]; 24 hours) | average response ([1]; 48 hours) | average response ([1]; 72 hours) | average response ([1]; by instance) | allergenic rate ([1]; in vivo) [%] | erythema and edema ([1]; in vivo) | antibacterial activity on filamentous fungi [2] | antimicrobial activity against common fungal skin infections compared with econazole, ketoconazole, clotrimazole and miconazole (543 common fungi) | minimum toxic dosage on main target organ (liver) [3] [g/kg] | antibacterial activity on candida [4]
1 | O=[N+]([O-])c1ccc(Cl)c([N+](=O)[O-])c1 [2,4-dinitro-chlorobenzene] | 2.4 | 2.7 | 2.9 | 2.4 | 100 | 10 animals all have erythema and edema |  |  |  | 
2 | c1ccc(-c2ccc(C(c3ccccc3)n3ccnc3)cc2)cc1 (stereo not shown) [Bifonazole] |  |  |  |  |  |  | strong antibacterial activity | slightly stronger | 2 | a certain antibacterial activity
